Test results: patent publication US20260209152A1, “Substituted Hydroxystilbene Compounds and Derivatives, Synthesis and Uses Thereof” (Kynan Duke IP, LLC, priority 2019, published 2026)
Where “and” joins values, the source holds several entries; their conditions need not be identical. Equal entries are not always repeated. Entries after “also recorded” stand apart in the source; their conditions may differ. Where two headings read alike, the source gives them in different places.

How the values were obtained:
BalbC mice = assay: Maximum Tolerable Dose - LD/50 single dose oral administration; assay type: in vivo; details: single oral dose 2000 mg/kg in SEDDS vehicle, 5 BalbC mice, observation 5 days
Procedure: To ascertain initial information regarding the toxicity and tolerability of compound 27.
• A single administration of orally formulated maximum dose, 2000 mg/kg was given to 5 BalbC mice. Observation was carried out for 5 days.
• Compound 27 was weighed out and diluted into the same SEDDS vehicle used for S1. The SEDDS vehicle is composed of the following components: • Labrasol (30%) • PEG-400 (20%) • Kolliphore RH-40 (30%) • Labrafil (20%) • The concentration of 27 in SEDDS was 200 mg/mL which would translate to a 2000 mg/kg oral dose for a 20 g mouse administered 200 ul. Oral administration was administered to 5 mice and the animals were carefully observed for signs of toxicity in the first hour then sporadically over 5 days.

BALB/c mice = assay: Effect of oral administration on animal wellbeing in B16F10 xenografted mice; assay type: in vivo; details: 900 mg/kg oral daily for 15 days
Procedure: (§1) • Observe and assess the effect of oral administration of 27 on animal wellbeing. • Quantify levels of 27 in tissues (plasma, tumor, liver, spleen and brain) to assess the compound bioaccumulation and distribution.
(§2) B16F10 cells (25×10^5 cells/mouse) were injected subcutaneously into the right flank of female BALB/c mice aged 7-8 weeks. Mice (n=10) were divided into 2 groups and given daily oral suspension of 27 (treated group), or vehicle (control group) for 15 days. The treated group was orally given a suspension of 27 at 900 mg/kg. The control group was given the vehicle suspension (SEDDS). Measurements performed on days 0, 9 and 15 only. Tissues (plasma, tumor, liver, spleen and brain) were harvested within 3 hours of final treatment. Biopsies of tumor tissues for histopathology were obtained subsequently.

[1] = tested on: melanoma B16F10 xenografted in BALB/c mice; assay: B16F10 xenografted mice: tumor volume and histopathology; assay type: in vivo
Procedure: as §2
Tissue samples from the tumors of both treated and control mice were fixed with formalin. Histopathological examination of these tumor samples was performed by Lore Laboratory, CA, USA.

[2] = Concentration of compound 27 in tissues (LC/MS/MS) of B16F10 xenografted mice; assay type: in vivo
Procedure: as §1, §2
Concentrations of 27 in different tissues were determined using LC/MS/MS spectrometry.

Kidney CRL-1611 = assay: CellTiter Glo cell viability assay; assay type: cell-based; details: Homo sapiens, 72 h
Procedure: (§3) 1.7*10^3 cells/well were seeded in quadruplicates in 96-well plate after plating. Drugs were added at 5 μM and 2-fold dilutions over 18 concentrations (0.000038146-5 […] range) to generate a dose-response curve. Cell growth was assessed on day 1, 3 and 5 after drug treatments using the CellTiter Glo Luminescence Cell Viability Assay (Promega) according to manufacturer's protocol. Thermo Scientific Varioskan LUX Multimode Microplate instrument was used for plate reading. Data are expressed as mean luminescence (arbitrary units) ±S.D.
(§4) Cell Viability Assays were employed to determine the concentration of Compound 1 (KYN-001) and analogues where the response is reduced by half. For each treatment of cancer cells, 1, 2, 5, 10 and 20 μM solutions of compounds were applied. GraphPad Prism 7 software was used to fit dose response curves. Relative Luminescence Units were plotted against the log values of the doses used and the nonlinear regression model was used for data analysis.
(§5) The protocol for cell proliferation was optimized for Compound 8 (KYN-119) to enable a more accurate assessment of its low IC50 value. In this protocol, 18 dosages (2 fold dilutions ranging from 0.000038146 to 5 μM) were applied to cells seeded in 96-well plates, and Luminescence was measured after 1, 3 and 5 days upon treatments.

Liver JHH-5 = assay: CellTiter Glo cell viability assay; assay type: cell-based; details: Homo sapiens, 72 h; 3 Days of treatment; 18 2-fold dilutions 5-0.00003 μM
Procedure: as §3, §4, §5

Pancreatic AsPC-1n = assay: CellTiter Glo cell viability assay; assay type: cell-based; details: Homo sapiens, 72 h; 3 Days of treatment; 18 2-fold dilutions 5-0.00003 μM
Procedure: as §3, §4, §5

Bladder HT_1376 = assay: CellTiter Glo cell viability assay; assay type: cell-based; details: Homo sapiens, HT-1376, 72 h; 3 Days of treatment; 18 2-fold dilutions 5-0.00003 μM
Procedure: as §3, §4, §5

Rhabomyosarcoma SJCRH30 = assay: CellTiter Glo cell viability assay; assay type: cell-based, human
Summary of the method: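 Cells were seeded at 1.7*10^3 cells/well in quadruplicate and treated with 18 two-fold dilutions from 5 μM (0.000038146–5 μM), or with 1, 2, 5, 10 and 20 μM. Viability was read by CellTiter Glo luminescence on days 1, 3 and 5, and IC50 came from nonlinear regression of RLU against log dose.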

[3] = 900 mg/kg oral daily, individual treated mice
[4] = individual treated mice, 900 mg/kg oral daily for 15 days in SEDDS, harvested within 3 hours of final treatment, LC/MS/MS, 900 mg/kg

## COc1cc(/C=C/c2cc(O)cc(OC)c2CC=C(C)C)ccc1NC=O [Compound 27, (E)-N-(4-(5-hydroxy-3-methoxy-2-(3-methylbut-2-en-1-yl)styryl)-2-methoxyphenyl)formamide]
BalbC mice
  Toxicity and tolerability, survival and signs of distress: All five mice survived and showed no immediate signs of distress; also recorded: high degree of oral tolerability
BALB/c mice
  Signs of toxic effect: no signs of toxic effect; also recorded: low toxicity when given orally
[1]; 900 mg/kg oral daily for 15 days
  Histochemical analysis of tumor samples, in words: tumors were subsequently diminished after day 10; also recorded: lysed and/or underwent necrosis
[1]; [3]
  Tumor volume Day 0: 109.29 mm^3 and 52.18 mm^3 and 58.45 mm^3 and 82.97 mm^3 and 66.82 mm^3
  Tumor volume Day 9: 132.59 mm^3 and 178.68 mm^3 and 37.38 mm^3 and 60.93 mm^3 and 47.3 mm^3
  Tumor volume Day 15: 5.31 mm^3 and 19.93 mm^3 and 35.03 mm^3 and 42.35 mm^3 and 39.44 mm^3
[2]; 900 mg/kg oral daily for 15 days, tissues harvested within 3 hours of final treatment
  Tissue distribution, in words: Low plasma level; also recorded: high tendency to accumulate in the brain
[2]; [4]
  Concentration of compound 27 in tissues: Liver: 12.6 μg/mg and 10.2 μg/mg and 1.0 μg/mg and 0.0 μg/mg (2×)
  Concentration of compound 27 in tissues: Plasma: 0.0 ng/mL (3×) and 8.4 ng/mL and 0.4 ng/mL
  Concentration of compound 27 in tissues: Spleen: 2 μg/mg and 0 μg/mg (4×)
  Concentration of compound 27 in tissues: Tumor: 0 μg/mg (3×) and 11.6 μg/mg

## COc1cc(/C=C/c2cc(O)cc(OC)c2CC=C(C)C)ccc1O [Compound 1, (E)-3-(4-hydroxy-3-methoxystyryl)-5-methoxy-4-(3-methylbut-2-en-1-yl)phenol]
Kidney CRL-1611; 3 Days of treatment, 18 2-fold dilutions 5-0.00003 μM, read-out: Average IC50
  IC50: 93.7 nM
Kidney CRL-1611; Day 3 upon drug treatment, 10 dosages 0.0001-20 μM, read-out: IC50
  IC50: 93.7 nM

## CCOc1cc(O)cc(/C=C/c2ccc(O)c(OC)c2)c1CC=C(C)C [Compound 8, (E)-3-Ethoxy-5-(4-hydroxy-3-methoxystyryl)-4-(3-methylbut-2-en-1-yl)phenol]
Liver JHH-5
  IC50: 4370 nM
Pancreatic AsPC-1n
  IC50: 2000 nM
Bladder HT_1376
  IC50: 610 nM
Rhabomyosarcoma SJCRH30; Homo sapiens, 72 h, 3 Days of treatment, 18 2-fold dilutions 5-0.00003 μM
  IC50: 43.4 nM
Rhabomyosarcoma SJCRH30; IC50 of 1 [KYN-001] vs 8 [KYN-119], 3 Days
  Fold IC50: 1.9
